Measurements taken from patent publication US20060210584A1, “Method for preparing citrinin-free Monascus biomass and use of citrinin-free Monascus biomass” (priority 2005, published 2006).

How the values were obtained:
[1] = tested on: mouse; conditions: cited from earlier work
[2] = Scavenging of DPPH radicals; assay type: biochemical; conditions: methanolic extract; absorbance 515 nm, 30 s
Method: (§1) A freeze-dried sample of Example 1 was weighed and made up to 100 mg/mL in distilled water. The solution was autoclaved at 121° C. for 15 min. The supernatant was harvested after centrifugation at 4° C. was stored at −20° C. A serial dilution was then made with the stock aqueous extract into a series of increasing concentrations of the extracts up to 100 mg/mL solution. For the assay of the scavenging of DPPH radicals, a methanolic extract (membrane-filtered; 0.45 μm membrane, Acrodisc 4CR, PTEE) (replacing the solvent water with methanol and procedure stated in the first sentence) was used instead.
1.8 mL of a methanolic solution of DPPH (6×10^−5M 2,2-diphenyl-1-picrylhydrazyl) was added to 0.2 mL of a methanolic Monascus extract of variable concentrations (prepared as described above). The absorbance of the reaction mixture was measured at 515 nm exactly 30s after the DPPH solution was added. Vitamin E and methanol were used as positive and negative controls, respectively.
The inhibition rate (%) was calculated using the following formula: Inhibition rate (%)=(A−A1)/A×100%
where A was the absorbance of the negative control, and A1 was that of the tested sample.

[3] = tested on: microsomal lipid peroxidation; assay: Inhibition of microsomal lipid peroxidation (MDA-TBA); assay type: biochemical; conditions: rat liver microsomes, 10 μM FeSO4 and 0.1 mM ascorbic acid, 37° C. 60 min; aqueous extract
Method: as §1
Normal rats were sacrificed by cervical dislocation. The liver of the rats was rapidly homogenized in 0.25M of an ice-cold sucrose solution and the resultant solution was centrifuged at 12,000×g for 20 min at 4° C. The supernatant obtained was centrifuged at 15,000×g for 60 min at 4° C. […]
The microsomes (200-300 μg/mL) were incubated at 37° C. for 60 min with the extract sample of Monascus biomass at variable concentrations, 10 μM FeSO4 and 0.1 mM ascorbic acid in 1.0 mL of a phosphate buffered saline (PBS, 0.25M, pH7.4). […] After centrifugation of precipitated protein, the color reaction of MDA-TBA complex was detected at OD 532 nm. […]
where A was the absorbance (OD532) of the negative control, and A1 was that of the tested sample.

[4] = Reducing power (potassium ferricyanide); assay type: biochemical; conditions: absorbance 700 nm
Method: as §1
2.5 mL of 1% potassium ferricyanide [K3Fe(CN)6] was added to 1.0 mL of an aqueous Monascus extract of variable concentrations (prepared as stated above). The resultant mixture was incubated at 50° C. for 20 min. 2.5 mL of trichloracetic acid (TCA, 10%) were added to the mixture. 2.5 mL of the resultant solution were mixed with 2.5 mL of distilled water and 0.5 mL of FeCl3 solution (0.1%). The absorbance was measured at 700 nm. Increased absorbance of the reaction mixture indicated an increase of reducing power. Vitamin C was used as a positive control in this experiment.

[5] = Scavenging of superoxide radicals (PMS-NADH/NBT); assay type: biochemical; conditions: PMS-NADH system, NBT, OD 560 nm; aqueous extract
Method: as §1
Superoxide radicals were generated in a PMS-NADH [phenazin methosulfate (PMS)-β-nicotinamide adenine dinucleotide (reduced from, NADH)] system by oxidation of NADH and assayed by the reduction of nitroblue tetrazolium (NBT). The superoxide radicals were generated in 3 mL of Tris-HCl buffer (16 mM, pH8.0), which contained 78 μM NADH, 50 μM NBT, 10 μM PMS and Monascus extracts at different concentrations to be tested. The color reaction between superoxide radicals and NBT was detected at OD 560 nm. L-ascorbic acid was used as a positive control. The inhibition rate (%) was calculated using the following formula: Inhibition rate (%)=(A−A1)/A×100%
where A was the absorbance of a negative control (distilled water), and A1 was the absorbance of the tested sample.

CC1=C2C(=CO[C@H](C)[C@H]2C)C(O)=C(C(=O)O)C1=O [citrinin]
LD50 (lethal dose causing decrease of 50% population) [1]: 35 mg/kg

Vitamin E
effective concentration to give 50% inhibition, scavenging of DPPH radicals [2]: 1 mg/mL

O=C1O[C@H]([C@@H](O)CO)C(O)=C1O [Vitamin C, L-ascorbic acid]
effective concentration giving 50% inhibition of microsomal lipid peroxidation [3]: 0.1 mg/mL | reducing power, concentration range of action [4]: less than 1 mg/mL | effective concentration giving 50% inhibition, scavenging of superoxide radicals [5]: 1.5 mg/mL
